Reference: PMC9329436, “Optimization of the 4-anilinoquin(az)oline scaffold as epidermal growth factor receptor (EGFR) inhibitors for chordoma utilizing a toxicology profiling assay platform” (Scientific Reports, 2022)
Where two headings read alike, the source gives them in different places.

Experiments:
Type in all cases: biochemical
[1] = target: T1, 320 wild-type protein kinases (Homo sapiens, UniProt O14920); conditions: IKK-beta, singlicate
T1 sequence (O14920 1-756): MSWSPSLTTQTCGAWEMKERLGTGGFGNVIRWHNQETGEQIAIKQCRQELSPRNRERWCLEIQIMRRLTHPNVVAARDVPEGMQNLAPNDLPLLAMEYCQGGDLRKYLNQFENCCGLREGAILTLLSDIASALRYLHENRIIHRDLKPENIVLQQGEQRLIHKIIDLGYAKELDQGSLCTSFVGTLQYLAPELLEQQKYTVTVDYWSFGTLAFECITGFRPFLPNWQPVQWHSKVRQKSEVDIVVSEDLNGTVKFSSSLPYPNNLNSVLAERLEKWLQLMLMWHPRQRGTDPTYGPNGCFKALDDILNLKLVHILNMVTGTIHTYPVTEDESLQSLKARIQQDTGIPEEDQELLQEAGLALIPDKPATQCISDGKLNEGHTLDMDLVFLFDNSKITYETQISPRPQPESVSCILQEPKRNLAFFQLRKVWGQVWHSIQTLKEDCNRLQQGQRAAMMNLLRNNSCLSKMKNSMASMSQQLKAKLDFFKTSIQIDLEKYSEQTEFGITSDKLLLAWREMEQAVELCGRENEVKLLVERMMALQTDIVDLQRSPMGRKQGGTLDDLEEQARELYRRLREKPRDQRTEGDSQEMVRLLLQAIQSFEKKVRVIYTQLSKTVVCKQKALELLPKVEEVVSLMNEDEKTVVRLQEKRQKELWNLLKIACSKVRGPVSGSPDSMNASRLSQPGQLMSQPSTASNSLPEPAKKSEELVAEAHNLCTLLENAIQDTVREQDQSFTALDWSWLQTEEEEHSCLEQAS
Source text: (§1) Table S4. Profiling of two compounds at two concentrations against 320 wild-type protein kinases; singlicate measurement; Residual activities (% of control).

[2] = target: T2, 320 wild-type protein kinases (Homo sapiens, UniProt O15264); conditions: p38-delta, singlicate
T2 sequence (O15264 1-365): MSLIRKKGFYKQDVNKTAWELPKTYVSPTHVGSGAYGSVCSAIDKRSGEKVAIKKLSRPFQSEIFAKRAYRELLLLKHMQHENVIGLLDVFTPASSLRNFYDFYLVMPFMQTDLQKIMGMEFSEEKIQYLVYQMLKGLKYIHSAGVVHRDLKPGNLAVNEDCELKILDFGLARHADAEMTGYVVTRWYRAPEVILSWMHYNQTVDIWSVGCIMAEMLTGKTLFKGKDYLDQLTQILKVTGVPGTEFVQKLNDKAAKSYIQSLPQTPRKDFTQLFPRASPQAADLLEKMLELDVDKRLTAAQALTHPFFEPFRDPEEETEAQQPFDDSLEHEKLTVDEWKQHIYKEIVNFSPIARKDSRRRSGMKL
Source text: as §1

[3] = target: 320 wild-type protein kinases (Homo sapiens, UniProt P05771); conditions: singlicate
Source text: as §1

[4] = target: 320 wild-type protein kinases (Homo sapiens, UniProt P50613); conditions: singlicate
Source text: as §1

[5] = target: 320 wild-type protein kinases (Homo sapiens, UniProt Q15418); conditions: kinase RPS6KA1, singlicate
Source text: as §1

[6] = target: T3, 320 wild-type protein kinases (Homo sapiens, UniProt Q8WTQ7); conditions: singlicate
T3 sequence (Q8WTQ7 1-553): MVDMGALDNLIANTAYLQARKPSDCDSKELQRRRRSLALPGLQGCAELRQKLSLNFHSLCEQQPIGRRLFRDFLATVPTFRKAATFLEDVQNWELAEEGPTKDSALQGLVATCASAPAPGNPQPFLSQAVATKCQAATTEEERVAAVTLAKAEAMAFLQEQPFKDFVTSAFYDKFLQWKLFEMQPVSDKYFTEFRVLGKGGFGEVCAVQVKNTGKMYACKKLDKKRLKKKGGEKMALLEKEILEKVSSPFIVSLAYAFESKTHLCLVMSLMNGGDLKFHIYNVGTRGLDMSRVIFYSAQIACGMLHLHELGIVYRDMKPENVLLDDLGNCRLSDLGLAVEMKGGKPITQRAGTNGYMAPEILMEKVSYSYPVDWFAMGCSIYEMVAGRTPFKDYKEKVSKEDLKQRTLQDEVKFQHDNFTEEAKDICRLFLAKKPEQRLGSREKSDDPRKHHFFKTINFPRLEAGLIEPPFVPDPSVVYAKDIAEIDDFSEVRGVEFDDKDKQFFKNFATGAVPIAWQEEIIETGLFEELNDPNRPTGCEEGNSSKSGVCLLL
Source text: as §1

[7] = target: T4, 320 wild-type protein kinases (Homo sapiens, UniProt Q9BXA7); conditions: kinase TSSK1, singlicate
T4 sequence (Q9BXA7 1-367): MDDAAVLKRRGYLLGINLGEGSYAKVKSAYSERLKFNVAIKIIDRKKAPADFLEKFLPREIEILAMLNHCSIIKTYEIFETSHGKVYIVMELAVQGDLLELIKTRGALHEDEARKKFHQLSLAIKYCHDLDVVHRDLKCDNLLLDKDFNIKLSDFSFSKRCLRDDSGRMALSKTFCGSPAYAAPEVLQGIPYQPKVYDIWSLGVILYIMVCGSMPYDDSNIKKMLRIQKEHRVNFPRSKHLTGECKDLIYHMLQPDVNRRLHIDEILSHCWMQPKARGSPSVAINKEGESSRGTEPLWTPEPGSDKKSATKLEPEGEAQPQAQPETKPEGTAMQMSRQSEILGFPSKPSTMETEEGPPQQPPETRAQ
Source text: as §1

[8] = target: 320 wild-type protein kinases (Homo sapiens, UniProt Q9H0K1); conditions: kinase SIK2, singlicate
Source text: as §1

[9] = target: 320 wild-type protein kinases (Homo sapiens, UniProt Q9H4A3); conditions: kinase WNK1, singlicate
Source text: as §1

Chain of 320 wild-type protein kinases (Homo sapiens, UniProt Q15418) (Q15418 whole entry): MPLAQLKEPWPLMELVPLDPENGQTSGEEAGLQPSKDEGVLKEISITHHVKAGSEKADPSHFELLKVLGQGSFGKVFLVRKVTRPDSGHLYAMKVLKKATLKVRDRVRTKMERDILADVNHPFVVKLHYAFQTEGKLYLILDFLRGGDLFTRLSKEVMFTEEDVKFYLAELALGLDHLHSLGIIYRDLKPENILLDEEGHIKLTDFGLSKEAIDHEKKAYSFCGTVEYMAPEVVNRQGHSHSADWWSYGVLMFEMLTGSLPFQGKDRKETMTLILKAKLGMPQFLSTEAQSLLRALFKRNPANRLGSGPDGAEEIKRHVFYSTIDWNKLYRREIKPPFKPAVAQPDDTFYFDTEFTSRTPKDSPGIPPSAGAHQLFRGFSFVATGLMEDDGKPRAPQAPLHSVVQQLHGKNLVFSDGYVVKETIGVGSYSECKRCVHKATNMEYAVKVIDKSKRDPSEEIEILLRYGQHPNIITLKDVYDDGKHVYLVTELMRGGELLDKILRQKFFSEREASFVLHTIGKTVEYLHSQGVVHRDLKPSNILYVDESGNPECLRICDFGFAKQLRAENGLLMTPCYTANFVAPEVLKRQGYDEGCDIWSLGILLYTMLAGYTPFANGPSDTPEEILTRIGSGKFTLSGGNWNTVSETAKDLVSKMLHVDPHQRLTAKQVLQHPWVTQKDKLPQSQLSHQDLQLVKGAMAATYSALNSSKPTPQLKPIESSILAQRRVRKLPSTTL
Chain of 320 wild-type protein kinases (Homo sapiens, UniProt Q9H0K1) (Q9H0K1 whole entry): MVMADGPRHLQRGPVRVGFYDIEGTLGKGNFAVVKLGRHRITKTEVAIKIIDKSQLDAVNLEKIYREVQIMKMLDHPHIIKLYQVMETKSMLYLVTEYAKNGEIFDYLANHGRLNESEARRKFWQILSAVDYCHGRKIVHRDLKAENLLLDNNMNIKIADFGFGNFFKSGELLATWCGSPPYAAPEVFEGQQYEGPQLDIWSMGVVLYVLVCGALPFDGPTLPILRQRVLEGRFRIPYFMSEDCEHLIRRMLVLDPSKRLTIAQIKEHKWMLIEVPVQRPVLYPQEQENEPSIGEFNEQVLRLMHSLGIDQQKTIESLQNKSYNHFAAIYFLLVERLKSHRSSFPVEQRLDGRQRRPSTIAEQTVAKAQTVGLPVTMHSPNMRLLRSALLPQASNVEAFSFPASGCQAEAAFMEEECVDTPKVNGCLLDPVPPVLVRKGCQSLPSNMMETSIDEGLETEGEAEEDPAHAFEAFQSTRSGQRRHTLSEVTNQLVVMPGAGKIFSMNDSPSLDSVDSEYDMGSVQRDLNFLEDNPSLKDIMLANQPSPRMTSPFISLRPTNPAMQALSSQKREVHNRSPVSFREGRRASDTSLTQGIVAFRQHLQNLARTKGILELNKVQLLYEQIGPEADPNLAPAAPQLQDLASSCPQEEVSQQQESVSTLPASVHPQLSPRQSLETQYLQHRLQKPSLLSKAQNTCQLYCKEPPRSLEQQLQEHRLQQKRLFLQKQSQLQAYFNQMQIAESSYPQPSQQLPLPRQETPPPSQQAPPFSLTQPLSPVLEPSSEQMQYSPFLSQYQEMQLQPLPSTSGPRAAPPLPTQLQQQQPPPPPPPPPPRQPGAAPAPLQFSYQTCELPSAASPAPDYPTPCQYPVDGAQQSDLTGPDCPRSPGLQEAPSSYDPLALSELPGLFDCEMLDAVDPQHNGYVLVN
Chain of 320 wild-type protein kinases (Homo sapiens, UniProt P05771) (P05771 whole entry): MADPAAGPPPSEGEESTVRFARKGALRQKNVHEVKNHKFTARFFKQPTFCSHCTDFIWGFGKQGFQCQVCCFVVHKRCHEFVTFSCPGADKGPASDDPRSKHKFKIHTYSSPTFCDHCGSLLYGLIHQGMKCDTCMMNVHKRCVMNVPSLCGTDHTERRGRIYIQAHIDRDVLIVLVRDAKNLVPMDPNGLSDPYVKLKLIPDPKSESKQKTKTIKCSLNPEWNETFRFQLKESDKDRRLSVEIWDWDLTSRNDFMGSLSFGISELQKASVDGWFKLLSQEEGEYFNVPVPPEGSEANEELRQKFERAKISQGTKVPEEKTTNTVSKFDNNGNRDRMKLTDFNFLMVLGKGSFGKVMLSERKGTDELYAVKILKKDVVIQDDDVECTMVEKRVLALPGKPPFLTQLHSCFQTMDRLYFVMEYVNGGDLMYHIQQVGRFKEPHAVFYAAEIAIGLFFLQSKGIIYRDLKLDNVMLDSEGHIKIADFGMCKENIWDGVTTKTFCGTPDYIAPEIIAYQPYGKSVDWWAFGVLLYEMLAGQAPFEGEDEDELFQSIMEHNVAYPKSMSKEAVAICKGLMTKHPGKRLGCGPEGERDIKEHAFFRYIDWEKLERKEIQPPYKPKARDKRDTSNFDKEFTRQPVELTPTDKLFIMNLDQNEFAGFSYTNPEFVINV
Chain of 320 wild-type protein kinases (Homo sapiens, UniProt Q9H4A3) (Q9H4A3 whole entry): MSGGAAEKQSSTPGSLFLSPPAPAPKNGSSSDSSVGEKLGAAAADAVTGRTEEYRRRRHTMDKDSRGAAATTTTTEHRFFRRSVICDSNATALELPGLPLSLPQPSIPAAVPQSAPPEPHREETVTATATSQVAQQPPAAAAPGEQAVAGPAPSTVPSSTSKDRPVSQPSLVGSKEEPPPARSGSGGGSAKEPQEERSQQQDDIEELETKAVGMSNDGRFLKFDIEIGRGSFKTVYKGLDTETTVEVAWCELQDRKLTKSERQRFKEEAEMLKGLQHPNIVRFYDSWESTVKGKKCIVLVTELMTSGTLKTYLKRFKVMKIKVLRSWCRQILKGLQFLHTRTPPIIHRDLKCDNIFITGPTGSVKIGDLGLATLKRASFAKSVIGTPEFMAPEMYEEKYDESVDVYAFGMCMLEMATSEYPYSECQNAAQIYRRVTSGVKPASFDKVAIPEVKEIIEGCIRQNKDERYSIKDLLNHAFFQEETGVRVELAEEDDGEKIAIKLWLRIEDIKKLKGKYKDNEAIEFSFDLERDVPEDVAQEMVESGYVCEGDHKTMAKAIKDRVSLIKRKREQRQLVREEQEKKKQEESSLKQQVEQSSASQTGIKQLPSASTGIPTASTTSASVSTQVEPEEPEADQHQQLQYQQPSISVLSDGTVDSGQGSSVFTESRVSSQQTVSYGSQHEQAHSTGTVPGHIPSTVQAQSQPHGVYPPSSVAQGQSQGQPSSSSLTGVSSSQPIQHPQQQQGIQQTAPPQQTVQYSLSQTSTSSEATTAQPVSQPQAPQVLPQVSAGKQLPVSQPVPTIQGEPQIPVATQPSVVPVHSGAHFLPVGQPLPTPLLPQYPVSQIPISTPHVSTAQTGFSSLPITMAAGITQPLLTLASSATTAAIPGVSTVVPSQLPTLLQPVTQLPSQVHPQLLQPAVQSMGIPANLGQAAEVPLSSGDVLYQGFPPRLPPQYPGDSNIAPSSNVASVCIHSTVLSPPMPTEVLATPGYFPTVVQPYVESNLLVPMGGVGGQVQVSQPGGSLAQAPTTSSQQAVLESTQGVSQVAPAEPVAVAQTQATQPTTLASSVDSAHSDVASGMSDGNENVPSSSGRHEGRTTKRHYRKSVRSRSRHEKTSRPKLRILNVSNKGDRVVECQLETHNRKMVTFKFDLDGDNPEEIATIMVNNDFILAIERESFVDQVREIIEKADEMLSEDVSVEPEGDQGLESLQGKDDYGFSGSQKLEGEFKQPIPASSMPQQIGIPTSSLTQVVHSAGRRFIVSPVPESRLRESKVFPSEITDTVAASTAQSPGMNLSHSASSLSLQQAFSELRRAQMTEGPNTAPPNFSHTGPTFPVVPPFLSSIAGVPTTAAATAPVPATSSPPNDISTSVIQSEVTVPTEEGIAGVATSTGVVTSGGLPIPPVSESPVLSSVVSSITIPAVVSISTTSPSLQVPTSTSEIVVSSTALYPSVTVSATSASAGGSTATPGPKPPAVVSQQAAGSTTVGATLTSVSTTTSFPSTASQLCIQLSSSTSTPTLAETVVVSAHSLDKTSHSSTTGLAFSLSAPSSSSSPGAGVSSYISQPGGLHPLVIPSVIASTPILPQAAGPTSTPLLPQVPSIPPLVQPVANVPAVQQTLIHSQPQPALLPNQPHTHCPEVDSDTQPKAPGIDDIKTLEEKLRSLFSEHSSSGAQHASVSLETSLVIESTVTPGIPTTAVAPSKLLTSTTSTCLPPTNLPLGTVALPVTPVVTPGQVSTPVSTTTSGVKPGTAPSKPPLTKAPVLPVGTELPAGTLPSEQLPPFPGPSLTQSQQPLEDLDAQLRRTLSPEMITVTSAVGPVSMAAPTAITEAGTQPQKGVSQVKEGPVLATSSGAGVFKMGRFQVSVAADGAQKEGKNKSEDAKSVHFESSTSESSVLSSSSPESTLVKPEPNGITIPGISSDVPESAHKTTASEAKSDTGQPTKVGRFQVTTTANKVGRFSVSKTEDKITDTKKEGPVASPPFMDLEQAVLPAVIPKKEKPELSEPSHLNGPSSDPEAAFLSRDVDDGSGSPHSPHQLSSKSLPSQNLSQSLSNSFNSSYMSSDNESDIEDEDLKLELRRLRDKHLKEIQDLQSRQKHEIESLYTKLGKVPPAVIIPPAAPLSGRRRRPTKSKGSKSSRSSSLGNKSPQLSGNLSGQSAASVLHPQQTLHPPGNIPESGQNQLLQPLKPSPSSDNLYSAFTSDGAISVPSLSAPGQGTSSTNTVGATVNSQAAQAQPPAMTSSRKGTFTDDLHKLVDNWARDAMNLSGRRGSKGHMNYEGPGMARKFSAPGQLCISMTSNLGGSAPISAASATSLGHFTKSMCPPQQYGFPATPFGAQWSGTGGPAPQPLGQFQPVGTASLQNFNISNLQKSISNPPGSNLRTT
Chain of 320 wild-type protein kinases (Homo sapiens, UniProt P50613) (P50613 whole entry): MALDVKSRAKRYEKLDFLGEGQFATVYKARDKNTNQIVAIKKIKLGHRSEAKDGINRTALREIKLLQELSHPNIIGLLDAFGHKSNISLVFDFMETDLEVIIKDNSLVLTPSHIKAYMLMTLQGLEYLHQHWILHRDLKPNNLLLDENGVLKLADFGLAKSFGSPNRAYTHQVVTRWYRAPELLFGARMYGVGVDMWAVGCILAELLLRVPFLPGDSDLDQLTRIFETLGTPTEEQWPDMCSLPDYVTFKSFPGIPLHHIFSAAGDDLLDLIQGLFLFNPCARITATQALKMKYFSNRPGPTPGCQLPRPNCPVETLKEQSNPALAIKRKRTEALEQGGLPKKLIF

Row | SMILES | Residual activity ([1]; 1.0E-06 M) | Residual activity ([1]; 1.0E-07 M) | Residual activity ([2]; 1.0E-06 M) | Residual activity ([2]; 1.0E-07 M) | Residual activity ([3]; PKC-beta1, 1.0E-06 M) | Residual activity ([3]; PKC-beta1, 1.0E-07 M) | Residual activity ([4]; CDK7/CycH/MAT1, 1.0E-06 M) | Residual activity ([4]; CDK7/CycH/MAT1, 1.0E-07 M) | Residual activity, RPS6KA1 ([5]; assay conc. 1.0E-06 M) | Residual activity, RPS6KA1 ([5]; assay conc. 1.0E-07 M) | Residual activity ([6]; GRK7, 1.0E-06 M) | Residual activity ([6]; GRK7, 1.0E-07 M) | Residual activity, TSSK1 ([7]; assay conc. 1.0E-06 M) | Residual activity, TSSK1 ([7]; assay conc. 1.0E-07 M) | Residual activity, SIK2 ([8]; assay conc. 1.0E-06 M) | Residual activity, SIK2 ([8]; assay conc. 1.0E-07 M) | Residual activity, WNK1 ([9]; assay conc. 1.0E-06 M) | Residual activity, WNK1 ([9]; assay conc. 1.0E-07 M)
1 | C#Cc1cc(Nc2ncnc3cc(I)ccc23)ccc1Cl [Compound 41] | 124 % of control | 199 % of control | 94 % of control | 112 % of control | 96 % of control | 110 % of control | 81 % of control | 93 % of control | 99 % of control | 103 % of control | 116 % of control | 124 % of control | 105 % of control | 142 % of control | 83 % of control | 92 % of control | 70 % of control | 84 % of control
2 | C#Cc1cc(Nc2ncnc3cc(OC)c(OC)cc23)ccc1Cl [Compound 45] | 107 % of control | 121 % of control | 94 % of control | 111 % of control | 88 % of control | 95 % of control | 79 % of control | 74 % of control | 74 % of control | 88 % of control | 121 % of control | 115 % of control | 111 % of control | 127 % of control | 67 % of control | 97 % of control | 95 % of control | 93 % of control
